Where a name gives a salt, the structure may show the parent alone.
Legend:
[1] = chemical stability to heat and light; type: physicochemical; settings: compared with the amorphous parent zwitterionic compound of formula (IV)
From the text: (§1) The enhanced stability and non-hygroscopic nature of the crystalline salt constitute advantageous properties in the preparation of solid pharmaceutical dosage forms containing the pharmacologically active ingredient.

[2] = hygroscopicity; type: physicochemical; settings: compared with the amorphous zwitterion of formula (IV)
From the text: as §1

[3] = solubility in water and buffered solutions; type: physicochemical; settings: water and buffered solutions between pH 2 and 8

SMILES | melting point | chemical stability to heat and light [1] | hygroscopicity [2] | solubility [3]
COc1ncc(C(CC(=O)O)CC(=O)CCCCc2ccc3c(n2)NCCCC3)cn1.O=P(O)(O)O (single isomer, unassigned) [1-17a, 3(S or R)-(2-Methoxy-pyrimidin-5-yl)-5-oxo-9-(6,7,8,9-tetrahydro-5H-pyrido[2,3-b]azepin-2-yl)-nonanoic Acid Phosphoric Acid Salt] | 127 °C |  |  | 
COc1ncc(C(CC(=O)O)CC(=O)CCCCc2ccc3c(n2)NCCCC3)cn1 (stereo not shown) [salt of formula I, phosphoric acid salt of 3-(2-methoxy-pyrimidin-5-yl)-5-oxo-9-(6,7,8,9-tetrahydro-5H-pyrido[2,3-b]azepin-2-yl)-nonanoic acid] |  | greater chemical stability to heat and light | significantly less hygroscopic | > 12 mg/mL
